Test results published in patent US9598396B2, “Tetrahydrophenanthridinones and tetrahydrocyclopentaquinolinones as PARP and tubulin polymerization inhibitors” (Janssen Pharmaceutica NV, priority 2008, dated 2017).

Legend:
[1] = target: TANK-2 enzyme (Homo sapiens (Human), UniProt Q9H2K2); test: In vitro Scintillation Proximity Assay (SPA) for TANK-2 inhibitory activity; type: biochemical; conditions: auto-poly(ADP-ribosyl)ation, [3H]-NAD+, Ni flash plates (96 or 384 well)
Procedure: C.2.In Vitro Scintillation Proximity Assay (SPA) for TANK-2 Inhibitory Activity
Compounds of the present invention were tested in an in vitro assay based on SPA technology with Ni Flash plates (96 or 384 well).
In principle, the assay relies upon SPA technology for the detection of auto-poly(ADP-ribosyl)ation of TANK-2 protein using [^3H]-nicotinamide adenine dinucleotide ([^3H]-NAD^+) as ADP-ribosyl donor.
A stock solution of 100 nM [^3H]-NAD^+/NAD (0.1 mCi/ml, supplier: Perkin Elmer) and 25 μM NAD (Sigma) was made in assay buffer (60 mM Tris/HCl, pH 7.4; 0.9 mM DTT; 6 mM MgCl2). The TANK-2 enzyme was produced as described in EP1238063. 60 μl of assay buffer, together with 1 μl of compound in DMSO, 20 μl of [^3H]-NAD^+/NAD and 20 μl of TANK-2 enzyme (final concentration 8 μg/ml) was added per well into a 96-well Ni-coated flash plate (Perkin Elmer). After incubation of the mixture for 120 minutes at room temperature, the reaction was terminated by adding 60 μl of stopsolution (42.6 mg NAD in 6 ml H2O). The plates were covered with a plate sealer and placed in a TopCountNXT™ (Packard) for scintillation counting. Values were expressed as counts per minute (cpm). For each experiment, controls (containing TANK-2 enzyme and DMSO without compound), a blank incubation (containing DMSO but no TANK-2 enzyme or compound) and samples (containing TANK-2 enzyme and compound dissolved in DMSO) were run in parallel. All compounds tested were dissolved and eventually further diluted in DMSO. In first instance, compounds were tested at a concentration of 10^−5M. […] In each test, the blank value was subtracted from both the control and the sample values. The control sample represented maximal TANK-2 enzyme activity. For each sample, the amount of cpm was expressed as a percentage of the mean cpm value of the controls. […] Herein the effects of test compounds are expressed as pIC50 (the negative log value of the IC50-value). As reference compounds, 3-aminobenzamide and 4-amino-1,8-naphtalimide were included to validate the SPA assay. Herein the assay was described using 96-well plates. In the assay using 384-well plates the same final concentrations were used and volumes were adapted.

[2] = system: tubulin; test: Tubulin polymerization assay; type: biochemical; conditions: inhibition of polymerization at 20 μM and 5 μM
Procedure: Example C.5 Polymerization Assay
The tubulin polymerization assay is an adaptation of an assay originally described by Bonne, D. et al. (J. Biol. Chem., 1985, 260:2819-25). The assay kit was purchased from Cytoskeleton, Inc. (catalogue number BK011) and the assay was performed as described by the supplier with the following modifications. The assay was run in a 384-well black Proxiplate (Perkin Elmer) and volumes were adapted accordingly. The reactions were carried out in a final volume of 10 μl. Compounds were added to 25 μl of the reaction mix in 96-well PP plates (Corning) on ice and 10 μl of this mixture was dispensed into duplicates of the 384-well Proxiplates pre-warmed to 37° C. in a Fluoroskan Ascent plate reader (Thermo Scientific). Fluorescence measurements were taken every minute for one hour. The maximum slope of each well was determined (linear regression through 4 consecutive points) and polymerization was calculated as a percentage of polymerization observed in the absence of compound.

[3] = system: Human colon carcinoma HCT116 cells; test: Detection of antiproliferative activity (Alamar Blue assay); type: cell-based; conditions: HCT-116, 96 h, 4-day incubation, read-out: Cellular assay HCT116 pIC50 (converted)
Procedure: Example C.4 Detection of Antiproliferative Activity
Human colon carcinoma HCT116 cells obtained from the ATCC were cultured in McCoy's 5A medium supplemented with 2 mM L-Glutamine, 50 μg/ml gentamicin and 10% heat inactivated fetal calf serum.
Reagents used in the Alamar Blue Assay
Resazurin was purchased from Aldrich (Prod. No. 199303). Potassium ferrocyanide, potassium ferricyanide, KH2PO4 and K2HPO4 were purchased from Sigma (Prod. Nos. P9387, P8131, P5655 and P8281, respectively).
Potassium Phosphate Buffer 0.1 M (PPB) was made as follows: 2.72 gram KH2PO4 and 13.86 gram K2HPO4 were dissolved in 500 ml milli-Q H2O, the pH was adjusted to pH 7.4 and the volume was brought to 1 liter with milli-Q H2O; the buffer was filter sterilised and stored at room temperature. Resazurin stock solution (PPB-A) was prepared fresh by dissolving 45 mg resazurin in 15 ml PBS. 30 mM potassium ferricyanide (PPB-B) was prepared by dissolving 0.987 gram potassium ferricyanide in 100 ml PPB. 30 mM potassium ferrocyanide (PPB-C) was prepared by dissolving 1.266 gram potassium ferrocyanide in 100 ml PPB.
Mixture of PPB-A, PPB-B and PPB-C was prepared by mixing equal volumes of the respective solutions. Resazurin work solution (herein termed “Alamar Blue” solution) was prepared by diluting said mixture 20× (vol/vol) in PPB and filter sterilising; the Alamar Blue solution could be kept at 4° C. for a maximum of 2 weeks.
Procedure of the Alamar Blue Assay
For experiments in 384 wells plates the cells were seeded at a density of 4.5×10^3 cells/ml in Falcon 384-well culture plates (Life Technologies, Merelbeke, Belgium), black with clear bottom, in 45 μl culture medium. Cells were allowed to adhere to plastic for 24 hours. The tested compound was pre-diluted (1/50 in culture medium) and 5 μl pre-diluted compound was added to the wells. Following 4-day incubation, 10 μl of the Alamar Blue solution was added to each well and the cells were further incubated for 4 hours (HCT116) or 24 hours (PC-3) at 37° C. The fluorescence intensity was measured for each well on a Fluorescence plate reader (Fluorskan, Labsystems, 540 nm excitation and 590 nm emission)
The antiproliferative activity was calculated as percentage of remaining viable cells in treated versus control (untreated cells) conditions. Within an experiment, the result for each experimental condition is the mean of 3 replicate wells. When appropriate, the experiments were repeated to establish full concentration-response curves. […] Herein the effects of tested compounds are expressed as pIC50 (the negative log value of the IC50 value) (see Table 3).

TANK-2 enzyme, sequence (Q9H2K2 whole entry): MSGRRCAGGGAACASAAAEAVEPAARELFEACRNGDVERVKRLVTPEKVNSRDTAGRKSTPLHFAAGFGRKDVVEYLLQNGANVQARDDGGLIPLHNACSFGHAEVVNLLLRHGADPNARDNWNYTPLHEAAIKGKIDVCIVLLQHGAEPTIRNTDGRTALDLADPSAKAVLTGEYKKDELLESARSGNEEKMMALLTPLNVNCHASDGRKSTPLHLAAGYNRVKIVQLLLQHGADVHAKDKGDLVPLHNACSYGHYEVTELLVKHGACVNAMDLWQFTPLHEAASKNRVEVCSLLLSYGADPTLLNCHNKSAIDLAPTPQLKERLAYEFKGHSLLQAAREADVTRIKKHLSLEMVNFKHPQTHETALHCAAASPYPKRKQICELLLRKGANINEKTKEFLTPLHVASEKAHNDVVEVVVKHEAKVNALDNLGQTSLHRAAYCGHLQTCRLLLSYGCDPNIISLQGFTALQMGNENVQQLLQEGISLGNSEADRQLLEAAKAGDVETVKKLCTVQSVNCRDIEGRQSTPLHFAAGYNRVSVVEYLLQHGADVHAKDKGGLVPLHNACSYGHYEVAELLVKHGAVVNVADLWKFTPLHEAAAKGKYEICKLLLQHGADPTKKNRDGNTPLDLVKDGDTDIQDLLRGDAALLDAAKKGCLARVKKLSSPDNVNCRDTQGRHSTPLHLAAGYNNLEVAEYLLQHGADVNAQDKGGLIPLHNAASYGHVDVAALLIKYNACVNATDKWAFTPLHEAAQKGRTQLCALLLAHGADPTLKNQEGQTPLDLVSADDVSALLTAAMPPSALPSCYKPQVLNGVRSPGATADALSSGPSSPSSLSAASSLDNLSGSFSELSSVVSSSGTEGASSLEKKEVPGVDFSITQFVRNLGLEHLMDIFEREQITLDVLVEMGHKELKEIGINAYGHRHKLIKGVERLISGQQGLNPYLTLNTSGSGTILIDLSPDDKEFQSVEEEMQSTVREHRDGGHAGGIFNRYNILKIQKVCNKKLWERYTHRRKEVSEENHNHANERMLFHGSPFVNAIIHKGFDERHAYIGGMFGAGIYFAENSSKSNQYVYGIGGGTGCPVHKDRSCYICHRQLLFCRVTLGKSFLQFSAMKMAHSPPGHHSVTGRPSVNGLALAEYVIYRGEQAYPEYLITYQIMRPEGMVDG

Row | SMILES | in vitro SPA assay TANK-2 pIC50 [1] | Assay Tubulin Polymerization score [2] | IC50 [3]
1 | CC(C#N)(Cc1cccc(C#N)n1)c1ccc2c3c(c(=O)[nH]c2c1)CCCC3 (stereo not drawn) [Co. No. 7] | 8.02 | 3 (a compound showing more than 50% inhibition at 5 μM is reported as score 3) | 58.9 nM
2 | CC(C#N)(Cc1cccc(Cl)c1)c1ccc2c3c(c(=O)[nH]c2c1)CCCC3 (stereo not drawn) [Co. No. 8] | 7.28 | 2 | 155 nM
3 | CC(C#N)(Cc1ccccc1)c1ccc2c3c(c(=O)[nH]c2c1)CCCC3 (stereo not drawn) [Co. No. 1] | 7.85 | 2 | 355 nM
4 | CC(C#N)(Cc1cccc(F)c1)c1ccc2c3c(c(=O)[nH]c2c1)CCCC3 (stereo not drawn) [Co. No. 5] | 7.71 | 2 | 282 nM
5 | CC(C#N)(Cc1cccc(C#N)c1)c1ccc2c3c(c(=O)[nH]c2c1)CCCC3 (stereo not drawn) [Co. No. 4] | 7.76 | 2 | 148 nM
6 | CC(C#N)(CCOc1ccc(C#N)cc1)c1ccc2c3c(c(=O)[nH]c2c1)CCCC3 (stereo not drawn) [Co. No. 17] | 7.28 | 2 | 204 nM
